According to ChEMBL document CHEMBL2034948, “The design, synthesis, and biological evaluation of PIM kinase inhibitors” (Bioorg Med Chem Lett, 2012):

Key:
Assay type in all cases: ADME, organism-based
[1] = Plasma concentration in mouse at 100 mg/kg, po after 1 hr; design: dose 100 mg/kg, route oral
[2] = Plasma concentration in mouse at 100 mg/kg, po after 4 hrs; design: dose 100 mg/kg, route oral
[3] = Clearance in rat at 5 mg/kg; design: dose 5 mg/kg; conditions: in vivo
[4] = Volume of distribution in rat at 5 mg/kg; design: dose 5 mg/kg; conditions: in vivo
[5] = Half life in rat at 5 mg/kg, iv; design: dose 5 mg/kg, route intravenous; conditions: in vivo
[6] = Half life in rat at 5 mg/kg, po; design: dose 5 mg/kg, route oral; conditions: in vivo
[7] = Oral bioavailability in rat at 5 mg/kg; conditions: in vivo
[8] = Cmax in rat at 5 mg/kg, iv; design: dose 5 mg/kg, route intravenous; conditions: in vivo
[9] = Cmax in rat at 5 mg/kg, po; design: dose 5 mg/kg, route oral; conditions: in vivo
Rattus norvegicus [10] = experiment: Dose normalised AUC in rat at 5 mg/kg, iv; design: dose 5 mg/kg, route intravenous; conditions: in vivo
Rattus norvegicus [11] = experiment: Dose normalised AUC in rat at 5 mg/kg, po; design: dose 5 mg/kg, route oral; conditions: in vivo
[12] = Clearance in rat at […]; design: dose 2.5 mg/kg; conditions: in vivo
[13] = Volume of distribution in rat at […]; design: dose 2.5 mg/kg; conditions: in vivo
[14] = Half life in rat at […], iv; design: dose 2.5 mg/kg, route intravenous; conditions: in vivo
[15] = Half life in rat at […], po; design: dose 2.5 mg/kg, route oral; conditions: in vivo
[16] = Oral bioavailability in rat at […]; conditions: in vivo
[17] = Cmax in rat at […], iv; design: dose 2.5 mg/kg, route intravenous; conditions: in vivo
[18] = Cmax in rat at […], po; design: dose 2.5 mg/kg, route oral; conditions: in vivo
Rattus norvegicus [19] = experiment: Dose normalised AUC in rat at […], iv; design: dose 2.5 mg/kg, route intravenous; conditions: in vivo
Rattus norvegicus [20] = experiment: Dose normalised AUC in rat at […], po; design: dose 2.5 mg/kg, route oral; conditions: in vivo

concentration at 1 h [1] [µM]	concentration at 4 h [2] [µM]	clearance [3] [L/h/kg]	Vd [4] [L/kg]	half-life [5] [h]	half-life [6] [h]	bioavailability [7] [%]	Cmax [8] [µM]	Cmax [9] [µM]	AUC/dose (Rattus norvegicus [10]) [µM·kg·h/mg]	AUC/dose (Rattus norvegicus [11]) [µM·kg·h/mg]	clearance [12] [L/h/kg]	Vd [13] [L/kg]	half-life [14] [h]	half-life [15] [h]	bioavailability [16] [%]	Cmax [17] [µM]	Cmax [18] [µM]	AUC/dose (Rattus norvegicus [19]) [µM·kg·h/mg]	AUC/dose (Rattus norvegicus [20]) [µM·kg·h/mg]	SMILES
93	35	0.793	2.3	2.7	4.7	79	7.6	3.1	3.8	2.9	–	–	–	–	–	–	–	–	–	O=c1[nH]c(CN2CC[C@@H](O)C2)nc2c1oc1ccc(Br)cc12
6	5	3.37	6.2	1.4	1.6	13	1.8	0.1	0.8	0.1	–	–	–	–	–	–	–	–	–	N[C@@H]1CCN(Cc2nc3c(oc4ccc(Br)cc43)c(=O)[nH]2)C1
13	5	–	–	–	–	–	–	–	–	–	1.84	3.8	1	1	77	1.8	0.8	1.7	1.3	O=c1[nH]c(CN2CCC2)nc2c1oc1ccc(Br)cc12
78	22	–	–	–	–	–	–	–	–	–	0.81	2.4	8.4	3.7	56	3.5	1.2	2.6	1.5	O=c1[nH]c(CN2CC(O)C2)nc2c1oc1ccc(Br)cc12

SMILES	concentration at 1 h [1] [µM]	concentration at 4 h [2] [µM]	clearance [3] [L/h/kg]	Vd [4] [L/kg]	half-life [5] [h]	half-life [6] [h]	bioavailability [7] [%]	Cmax [8] [µM]	Cmax [9] [µM]	AUC/dose (Rattus norvegicus [10]) [µM·kg·h/mg]	AUC/dose (Rattus norvegicus [11]) [µM·kg·h/mg]	clearance [12] [L/h/kg]	Vd [13] [L/kg]	half-life [14] [h]	half-life [15] [h]	bioavailability [16] [%]	Cmax [17] [µM]	Cmax [18] [µM]	AUC/dose (Rattus norvegicus [19]) [µM·kg·h/mg]	AUC/dose (Rattus norvegicus [20]) [µM·kg·h/mg]
CN1C[C@@H]2C[C@H]1CN2Cc1nc2c(oc3ccc(Br)cc32)c(=O)[nH]1	11	7	2.04	7.1	2.6	2.6	86	1.5	0.4	1.2	0.9	–	–	–	–	–	–	–	–	–
